Measurements taken from ChEMBL document CHEMBL3108758, “Design, synthesis, and biological evaluation of potent and selective class IIa histone deacetylase (HDAC) inhibitors as a potential therapy for Huntington's disease” (J Med Chem, 2013).

Tests used:
[1] = Tmax in C57BL/6JO1aHsd mouse brain at 10 mg/kg, po; type: ADME, organism-based; set-up: dose 10 mg/kg, route oral
[2] = tested on: Muscle tissue; assay: Cmax in C57BL/6JO1aHsd mouse muscle at 10 mg/kg, po; type: ADME, organism-based; set-up: dose 10 mg/kg, route oral; conditions: in vivo
[3] = Tmax in C57BL/6JO1aHsd mouse plasma at 10 mg/kg, po; type: ADME, organism-based; set-up: dose 10 mg/kg, route oral
[4] = tested on: Brain; assay: Dose normalized AUC in C57BL/6JO1aHsd mouse brain at 10 mg/kg, po; type: ADME, organism-based; set-up: dose 10 mg/kg, route oral; conditions: in vivo
[5] = tested on: Brain; assay: Cmax in C57BL/6JO1aHsd mouse brain at 10 mg/kg, po; type: ADME, organism-based; set-up: dose 10 mg/kg, route oral; conditions: in vivo
[6] = Volume of distribution at steady state in C57BL/6JO1aHsd mouse at 5 mg/kg, iv; type: ADME, organism-based; set-up: dose 5 mg/kg, route intravenous; conditions: in vivo, read-out: Vdss
[7] = tested on: Plasma; assay: Dose normalized AUC in C57BL/6JO1aHsd mouse plasma at 10 mg/kg, po; type: ADME, organism-based; set-up: dose 10 mg/kg, route oral; conditions: in vivo
[8] = tested on: Plasma; assay: Cmax in C57BL/6JO1aHsd mouse plasma at 10 mg/kg, po; type: ADME, organism-based; set-up: dose 10 mg/kg, route oral; conditions: in vivo
[9] = Tmax in C57BL/6JO1aHsd mouse muscle at 10 mg/kg, po; type: ADME, organism-based, Muscle tissue; set-up: dose 10 mg/kg, route oral
[10] = tested on: Muscle tissue; assay: Dose normalized AUC in C57BL/6JO1aHsd mouse muscle at 10 mg/kg, po; type: ADME, organism-based; set-up: dose 10 mg/kg, route oral; conditions: in vivo
[11] = Oral bioavailability in C57BL/6JO1aHsd mouse at 10 mg/kg; type: ADME, organism-based; conditions: in vivo
[12] = Ratio of drug uptake from muscle to plasma in C57BL/6JO1aHsd mouse at 10 mg/kg, po; type: ADME, organism-based; set-up: dose 10 mg/kg, route oral
[13] = Ratio of drug uptake from brain to plasma in C57BL/6JO1aHsd mouse at 10 mg/kg, po; type: ADME, organism-based; set-up: dose 10 mg/kg, route oral; conditions: read-out: BPR

SMILES | Tmax [1] | Cmax normalised [2] | Tmax [3] | AUC/dose [4] | Cmax normalised [5] | Vd [6] | AUC/dose [7] | Cmax normalised [8] | Tmax [9] | AUC/dose [10] | bioavailability [11] | Kp [12] | Kp [13]
O=C(NO)[C@@H]1[C@H](c2ccccc2)[C@H]1c1ccc2c(c1)CN(CC(F)(F)F)C2=O | 30 min | 160 nM·kg/mg | 30 min | 17 nM·kg·h/mg | 5.7 nM·kg/mg | 4.6 L/kg | 1100 nM·kg·h/mg | 280 nM·kg/mg | 60 min | 1000 nM·kg·h/mg | 62% |  | 
O=C(NO)[C@@H]1[C@H](c2ccccc2)[C@H]1c1ccc(-c2cnc(C3CC3)o2)cc1 | 60 min | 420 nM·kg/mg | 30 min | 390 nM·kg·h/mg | 200 nM·kg/mg | 1.6 L/kg | 1500 nM·kg·h/mg | 810 nM·kg/mg | 60 min | 1000 nM·kg·h/mg | 73% | 0.4 | 0.3
O=C(NO)[C@@H]1[C@H](c2ccccc2)[C@H]1c1ccc(-c2cnco2)cc1 | 30 min | 730 nM·kg/mg | 30 min | 700 nM·kg·h/mg | 670 nM·kg/mg | 0.74 L/kg | 1300 nM·kg·h/mg | 1200 nM·kg/mg | 30 min | 810 nM·kg·h/mg | 84% |  | 
